Assay results published in patent US10301267B2, “Compounds” (AstraZeneca AB, priority 2006, dated 2019).

Molecular target: FGFR1 active kinase (Homo sapiens, UniProt P11362)
Assay: FGFR Kinase assay - Caliper Echo Dosing
Type: biochemical
Conditions: FGFR1 7.2 nM, 408 uM ATP, acoustic dosing; geometric mean of n
Method: FGFR Kinase Assay—Caliper Echo Dosing
To determine inhibition of FGFR activity, kinase assays were conducted using Caliper technology.
Kinase activity assays were performed in Greiner 384-well low volume plates, with a total reaction volume of 12 ul per well. Final concentration of FGFR1 active kinase in each reaction well was 7.2 nM. The substrate for each assay was a custom peptide with fluorescent tag (13 amino acids in length, […] with the fluorescene tag on the first K).
Compounds were dispensed directly in to assay plates using a Labcyte Echo 550 acoustic droplet ejection unit. Each well received 120 nl of DMSO containing compound such that the final concentration of compound in the assay prior to the addition of the stop solution ranged between 30 uM and 30 pM. In addition to compounds each plate carried maximum and minimum control wells, the max wells contained 120 nl of DMSO and the min wells contained 120 nl of 10 mM staurosporine (LC Laboratories, MA 01801, USA Catalogue No. S-9300). The Enzyme (at 7.2 nM [final]) and Substrate (at 3.6 uM [final]) were added separately to the compound plates, in reaction buffer [comprising: 50 mM MOPS (Sigma, Catalogue No. M1254)—pH 6.5, 0.004% Triton (Sigma, Catalogue No. X-100), 2.4 mM DTT, 12 mM MgCl2, 408 uM ATP] resulting in a final DMSO concentration in the reaction mix of 1%.
Assay plates were incubated at room temperature for 1.5 h, before the reaction was stopped with the addition of buffer [comprising: 100 mM HEPES—pH7.5, 0.033% Brij-35 (Sigma Catalogue No. B4184), 0.22% Caliper Coating Reagent #3 (Caliper Life Sciences Catalogue No. 760050), 88 mM EDTA, 5% DMSO]. Stopped assay plates were then read using the Caliper LabChip® LC3000 (which uses microfludics to measure a shift in mobility between fluorescent labelled peptide and the FGFR1 kinase—phosphorylated form of this peptide).
In the assay, compounds were tested at a range of concentrations. […] Percentage inhibition at 1 uM, as expressed herein, is a calculated value based on the curve fit that was generated experimentally. From the fitted curve plot, the effect of compound at a concentration of 1 uM was calculated as a percentage inhibition. The IC50 is the concentration of compound, which inhibits FGFR1 kinase activity by 50% in the context of this assay. This value is calculated using a standard curve fitting software package Origin™.

Sequence of FGFR1 active kinase (P11362 22-822): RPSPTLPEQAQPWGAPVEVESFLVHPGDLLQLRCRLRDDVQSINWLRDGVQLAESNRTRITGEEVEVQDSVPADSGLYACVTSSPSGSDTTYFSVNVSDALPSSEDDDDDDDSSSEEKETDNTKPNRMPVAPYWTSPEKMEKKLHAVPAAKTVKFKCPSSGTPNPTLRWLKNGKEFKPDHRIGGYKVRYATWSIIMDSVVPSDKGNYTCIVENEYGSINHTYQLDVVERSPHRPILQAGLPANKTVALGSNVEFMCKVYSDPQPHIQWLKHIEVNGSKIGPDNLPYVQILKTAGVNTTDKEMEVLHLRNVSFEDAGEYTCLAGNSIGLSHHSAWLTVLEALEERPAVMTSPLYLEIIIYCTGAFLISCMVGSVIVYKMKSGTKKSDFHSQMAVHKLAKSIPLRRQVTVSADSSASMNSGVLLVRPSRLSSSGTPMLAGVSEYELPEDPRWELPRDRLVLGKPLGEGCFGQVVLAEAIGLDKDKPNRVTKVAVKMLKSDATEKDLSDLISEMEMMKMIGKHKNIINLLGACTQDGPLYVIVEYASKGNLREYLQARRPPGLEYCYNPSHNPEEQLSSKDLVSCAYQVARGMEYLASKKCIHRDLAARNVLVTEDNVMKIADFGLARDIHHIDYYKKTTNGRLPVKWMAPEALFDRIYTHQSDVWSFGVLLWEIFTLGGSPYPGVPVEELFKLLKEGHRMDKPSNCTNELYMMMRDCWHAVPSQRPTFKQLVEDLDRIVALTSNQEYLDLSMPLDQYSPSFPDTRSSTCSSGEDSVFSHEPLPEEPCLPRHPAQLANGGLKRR

SMILES	IC50 [nM]
COc1cc(COc2cc(NC(=O)c3cnc(Cl)cn3)[nH]n2)cc(OC)c1 [5-Chloro-N-[5-[(3,5-dimethoxyphenyl)methoxy]-2H-pyrazol-3-yl]pyrazine-2-carboxamide]	60
COc1cc(CCc2cc(NC(=O)c3ccc(CN(C)CC4CCCO4)cc3)n[nH]2)cc(OC)c1 (stereo not shown) [Example 57, N-[5-[2-(3,5-Dimethoxyphenyl)ethyl]-1H-pyrazol-3-yl]-4-[(methyl-(oxolan-2-ylmethyl)amino)methyl]benzamide]	5.3
COc1cc(CCc2cc(NC(=O)c3ccc(N4CC(C)N(C)C(C)C4)cc3)n[nH]2)cc(OC)c1 (stereo not shown) [Example 96, N-[5-[2-(3,5-Dimethoxyphenyl)ethyl]-1H-pyrazol-3-yl]-4-(3,4,5-trimethylpiperazin-1-yl)benzamide]	0.54
COc1cc(COc2cc(NC(=O)c3ccc(N4CCN(C)C(C)C4)s3)[nH]n2)cc(OC)c1 (stereo not shown) [Example 97, N-[5-[(3,5-dimethoxyphenyl)methoxy]-2H-pyrazol-3-yl]-5-(3,4-dimethylpiperazin-1-yl)thiophene-2-carboxamide]	0.46
COc1cc(COc2cc(NC(=O)c3ccc(N4CCN5CCCC5C4)cc3)[nH]n2)cc(OC)c1 (stereo not shown) [Example 104, 4-(3,4,6,7,8,8a-hexahydro-1H-pyrrolo[2,1-c]pyrazin-2-yl)-N-[5-[(3,5-dimethoxyphenyl)methoxy]-2H-pyrazol-3-yl]benzamide]	1.3
COc1cc(CCc2cc(NC(=O)c3cnc(N4CCN5CCCCC5C4)cn3)[nH]n2)cc(OC)c1 (stereo not shown) [Example 105, 5-(1,3,4,6,7,8,9,9a-Octahydropyrido[2,1-c]pyrazin-2-yl)-N-[5-[2-(3,5-dimethoxyphenyl)ethyl]-2H-pyrazol-3-yl]pyrazine-2-carboxamide]	130
COc1cc(COc2cc(NC(=O)c3cnc(N4CCN(C5CC5)CC4)cn3)[nH]n2)cc(OC)c1 [Example 109, 5-(4-Cyclopropylpiperazin-1-yl)-N-[5-[(3,5-dimethoxyphenyl)methoxy]-2H-pyrazol-3-yl]pyrazine-2-carboxamide]	3
COc1cc(CCc2cc(NC(=O)c3cnc(N4C[C@@H](C)N[C@@H](C)C4)cn3)[nH]n2)cc(OC)c1 [Example 112, N-[5-[2-(3,5-dimethoxyphenyl)ethyl]-2H-pyrazol-3-yl]-5-[(3R,5S)-3,5-dimethylpiperazin-1-yl]pyrazine-2-carboxamide]	1.7
COc1cc(CCc2cc(NC(=O)c3cnc(N4CCN(C5CC5)CC4)cn3)[nH]n2)cc(OC)c1 [Example 113, 5-(4-Cyclopropylpiperazin-1-yl)-N-[5-[2-(3,5-dimethoxyphenyl)ethyl]-2H-pyrazol-3-yl]pyrazine-2-carboxamide]	2.3
COc1cc(CCc2cc(NC(=O)c3cnc(N4CCN5CCCC5C4)cn3)[nH]n2)cc(OC)c1 (stereo not shown) [Example 114, 5-(3,4,6,7,8,8a-hexahydro-1H-pyrrolo[2,1-c]pyrazin-2-yl)-N-[5-[2-(3,5-dimethoxyphenyl)ethyl]-2H-pyrazol-3-yl]pyrazine-2-carboxamide]	1.6
COc1cc(CCc2cc(NC(=O)c3ccc(N4CC[N+](C)([O-])CC4)cc3)[nH]n2)cc(OC)c1 [Example 117, N-[5-[2-(3,5-Dimethoxyphenyl)ethyl]-2H-pyrazol-3-yl]-4-(4-methyl-4-oxidopiperazin-4-ium-1-yl)benzamide]	1.3
COc1cc(COc2cc(NC(=O)c3ccc(N4CCN(C5CCC5)CC4)cc3)[nH]n2)cc(OC)c1 [Example 118, 4-(4-Cyclobutylpiperazin-1-yl)-N-[5-[(3,5-dimethoxyphenyl)methoxy]-2H-pyrazol-3-yl]benzamide]	1.1

The next lines start with the values.

IC50 [nM]	SMILES
21	COc1cc(CCc2cc(NC(=O)c3ccc(I)cc3)[nH]n2)cc(OC)c1 [Example 82, N-[5-[2-(3,5-Dimethoxyphenyl)ethyl]-2H-pyrazol-3-yl]-4-iodo-benzamide]
3	COc1cc(COc2cc(NC(=O)c3ccc(N4CCN5CCCCC5C4)cc3)[nH]n2)cc(OC)c1 (stereo not shown) [Example 98, 4-(1,3,4,6,7,8,9,9a-octahydropyrido[2,1-c]pyrazin-2-yl)-N-[5-[(3,5-dimethoxyphenyl)methoxy]-2H-pyrazol-3-yl]benzamide]
0.91	COc1cc(CCc2cc(NC(=O)c3ccc(C4CCN(C5CC5)CC4)cc3)[nH]n2)cc(OC)c1 [Example 99, 4-(1-Cyclopropylpiperidin-4-yl)-N-[5-[2-(3,5-dimethoxyphenyl)ethyl]-2H-pyrazol-3-yl]benzamide]
1.4	COc1cc(COc2cc(NC(=O)c3ccc(N4C[C@@H](C)N[C@@H](C)C4)cc3)[nH]n2)cc(OC)c1 [Example 100, N-[5-[(3,5-dimethoxyphenyl)methoxy]-2H-pyrazol-3-yl]-4-[(3R,5S)-3,5-dimethylpiperazin-1-yl]benzamide]
21	COc1cc(COc2cc(NC(=O)c3ccc(N4CCN(C)C(C)C4)cc3)[nH]n2)cc(OC)c1 (stereo not shown) [Example 101, N-[5-[(3,5-dimethoxyphenyl)methoxy]-2H-pyrazol-3-yl]-4-(3,4-dimethylpiperazin-1-yl)benzamide]
28	COc1cc(CCc2cc(NC(=O)c3ccc(N4CCN(C(=O)OC(C)(C)C)CC4)s3)[nH]n2)cc(OC)c1 [Example 102, tert-Butyl 4-[5-[[5-[2-(3,5-dimethoxyphenyl)ethyl]-2H-pyrazol-3-yl]carbamoyl]thiophen-2-yl]piperazine-1-carboxylate]
0.94	COc1cc(COc2cc(NC(=O)c3ccc(C4CCN(C)CC4)cc3)[nH]n2)cc(OC)c1 [Example 103, N-[5-[(3,5-dimethoxyphenyl)methoxy]-2H-pyrazol-3-yl]-4-(1-methylpiperidin-4-yl)benzamide]
1	COc1cc(CCc2cc(NC(=O)c3ccc(N4CCN(C)CC4)s3)[nH]n2)cc(OC)c1 [Example 106, N-[5-[2-(3,5-dimethoxyphenyl)ethyl]-2H-pyrazol-3-yl]-5-(4-methylpiperazin-1-yl)thiophene-2-carboxamide]
1.1	COc1cc(COc2cc(NC(=O)c3ccc(N4CCN(C)CC4)s3)[nH]n2)cc(OC)c1 [Example 107, N-[5-[(3,5-dimethoxyphenyl)methoxy]-2H-pyrazol-3-yl]-5-(4-methylpiperazin-1-yl)thiophene-2-carboxamide]
2	COc1cc(CCc2cc(NC(=O)c3cnc(N4CCNC(C)(C)C4)cn3)[nH]n2)cc(OC)c1 [Example 108, N-[5-[2-(3,5-dimethoxyphenyl)ethyl]-2H-pyrazol-3-yl]-5-(3,3-dimethylpiperazin-1-yl)pyrazine-2-carboxamide]
0.68	COc1cc(COc2cc(NC(=O)c3ccc(N4C[C@@H](C)N(C)[C@@H](C)C4)cc3)[nH]n2)cc(OC)c1 [Example 110, N-[5-[(3,5-dimethoxyphenyl)methoxy]-2H-pyrazol-3-yl]-4-[(3R,5S)-3,4,5-trimethylpiperazin-1-yl]benzamide]
0.76	COc1cc(COc2cc(NC(=O)c3ccc(N4CCNC(C)(C)C4)cc3)[nH]n2)cc(OC)c1 [Example 111, N-[5-[(3,5-dimethoxyphenyl)methoxy]-2H-pyrazol-3-yl]-4-(3,3-dimethylpiperazin-1-yl)benzamide]
2.3	COc1cc(COc2cc(NC(=O)c3cnc(N4CCN5CCCCC5C4)cn3)[nH]n2)cc(OC)c1 (stereo not shown) [Example 115, 5-(1,3,4,6,7,8,9,9a-Octahydropyrido[2,1-c]pyrazin-2-yl)-N-[5-[(3,5-dimethoxyphenyl)methoxy]-2H-pyrazol-3-yl]pyrazine-2-carboxamide]
0.93	COc1cc(COc2cc(NC(=O)c3ccc(N4CCN(C5CC5)CC4)cc3)[nH]n2)cc(OC)c1 [Example 116, 4-(4-cyclopropylpiperazin-1-yl)-N-[5-[(3,5-dimethoxyphenyl)methoxy]-2H-pyrazol-3-yl]benzamide]
3.3	COc1cc(COc2cc(NC(=O)c3cnc(N4CCN5CCCCC5C4)nc3)[nH]n2)cc(OC)c1 (stereo not shown) [Example 119, 2-(1,3,4,6,7,8,9,9a-Octahydropyrido[2,1-c]pyrazin-2-yl)-N-[5-[(3,5-dimethoxyphenyl)methoxy]-2H-pyrazol-3-yl]pyrimidine-5-carboxamide]
0.98	COc1cc(CCc2cc(NC(=O)c3ccc(N4CCN5CCCC5C4)s3)[nH]n2)cc(OC)c1 (stereo not shown) [Example 120, 5-(3,4,6,7,8,8a-hexahydro-1H-pyrrolo[2,1-c]pyrazin-2-yl)-N-[5-[2-(3,5-dimethoxyphenyl)ethyl]-2H-pyrazol-3-yl]thiophene-2-carboxamide]
